Measured values taken from patent US20150239831A1, “INHIBITORS OF CENTRAL NERVOUS SYSTEM VASOACTIVE INHIBITORY PEPTIDE RECEPTOR 2” (The Trustees Of Columbia University In The City Of New York, priority 2012, published 2015).

How the values were obtained:
Assay type in all cases: cell-based
Design in all cases: expressed in transfected cells; host or cells: HEK293 cells transfected with VIPR2 in pCDNA3.1 (as described)
VIPR2 [1] = molecular target: T1, VIPR2 (Homo sapiens, UniProt P41587); assay: Inhibition of VIP-induced cAMP elevation (% Activity cAMP)
T1 sequence (P41587 24-438): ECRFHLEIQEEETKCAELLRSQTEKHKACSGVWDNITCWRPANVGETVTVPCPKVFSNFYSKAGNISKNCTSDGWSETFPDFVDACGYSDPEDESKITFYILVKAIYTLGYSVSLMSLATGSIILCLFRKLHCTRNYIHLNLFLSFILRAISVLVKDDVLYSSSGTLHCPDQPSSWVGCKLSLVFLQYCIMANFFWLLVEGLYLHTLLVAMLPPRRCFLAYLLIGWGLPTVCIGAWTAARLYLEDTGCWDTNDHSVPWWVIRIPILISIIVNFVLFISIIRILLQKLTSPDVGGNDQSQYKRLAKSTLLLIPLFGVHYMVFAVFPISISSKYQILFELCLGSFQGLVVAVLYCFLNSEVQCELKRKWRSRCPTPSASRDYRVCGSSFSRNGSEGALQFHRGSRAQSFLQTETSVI
Source text: (§1) In a further non-limiting embodiment of the invention, the ability of a compound to inhibit VIPR2 and thereby […] a VIP-induced increase in cAMP may be measured using a Homogeneous Time-Resolved Fluorescence (“HTRF® assay; Cisbio Bioassays) as used in Chu et al., 2010, Molecular Pharmacol. 7795-101. In a method as used in Chu et al., 2010, Molecular Pharmacol. 7795-101, HEK293 cells may be transfected with nucleic acid encoding VIPR2, for example human VIPR2 (“hVIPR2”), for example comprised in a vector such as pCDNA3.1 vector. Successful transformants may then be selected, for example using 800 μg/ml G418. Clonal stable cell lines may then be generated by limited dilution to single cells and then may be clonally expanded and tested for VIP -dependent cAMP response. For the cAMP assay, about 3000-15,000 cells (in about 4-25 μl) may be placed in a well of an assay plate. The next day, inhibitor or test inhibitor and VIP may be added in a volume about 1-2 percent of the initial volume. Assay plates may then be returned to a cell incubator for 30 min before addition of a one-half volume of cAMP conjugate and, relative to the amount of cAMP conjugate, an equal volume of anti-cAMP conjugate (Cisbio). After at least 1 h of room-temperature incubation, HTRF signal may be read, for example using Viewlux or EnVision (PerkinElmer Life and Analytical Sciences, Waltham, Mass.). The ratio of […] at 665 nm and 620 nm times 10,000 may be calculated and plotted.
(§2) A series of compounds were prepared using a synthetic method analogous to that set forth in Scheme 1, above, and then tested for their ability to inhibit VIP-induced cAMP elevation and β-arrestin recruitment.
(§3) A series of compounds were prepared using a synthetic method analogous to that set forth in Scheme 1, above, and then tested for their ability to inhibit VIP-induced cAMP elevation and β-arrestin recruitment, as described herein (Discoverx Corporation, Fremont, Calif., US). Compound activities were also tested in a BRET-based assay, as described herein. The results are shown below in Tables 1-4, above.

VIPR2 [2] = molecular target: T1, VIPR2; assay: Inhibition of VIP-induced β-arrestin recruitment (% Activity Arrestin)
Source text: (§4) In a further non-limiting embodiment of the invention, the ability of a compound to inhibit VIPR2 GPCR activity may be tested, for example, using the PathHunter® eXpress β-Arrestin GPCR system (Discoverx Corporation, Fremont, Calif., US), as used by Chu et al., 2010, Molecular Pharmacol. 7795-101. In this assay, β-Arrestin is fused to the “Enzyme Acceptor” (“EA”), an N-terminal deletion mutant of β-gal, and the GPCR of interest is fused to a smaller (42 amino acids), weakly complementing portion of the β-gal enzyme (termed “ProLink™”). In cells that stably express these fusion proteins, the interaction of β-Arrestin and the GPCR following ligand stimulation forces the complementation of the two β-gal fragments resulting in the formation of a functional enzyme that converts substrate to detectable signal. In the absence of an interaction between the GPCR and β-Arrestin, the enzyme activity is low due to the low affinity of the two enzyme fragments. For example, a nucleic acid encoding VIPR2, for example hVIPR2, may be cloned into the ProLink vector (DiscoveRx) for GPCR-ProLink fusion protein production. Parental HEK293 cells that stably express β-arrestin2-β-gal-EA fusion protein (DiscoveRx) may be detached and transiently transfected with the VIPR2-containing vector using Fugene6 transfection reagent in suspension mode. Transfected cells in assay medium may be plated into test plates, for example at 15,000 cells/25 μl/well. After overnight incubation, 500 nl of an inhibitor or test inhibitor may be introduced into the test plate followed by 2 h incubation at 37° C., 5% CO2. Flash detection reagents may be added at 12.5 μl/well. After 5 min to 1 h of room-temperature incubation, the cell plates may be read on CLIPR (PerkinElmer Life and Analytical Sciences)or Acquest (Molecular Devices, Sunnyvale, Calif.) for luminescence signal.
as §2, §3

VIPR2 [3] = molecular target: T1, VIPR2; assay: % Activity: inhibition of VIP-induced cAMP elevation and β-arrestin recruitment (Table 2)
Source text: as §1, §4, §3

SMILES | inhibition at 0.5 µM (VIPR2 [1]; Batch 3) | inhibition at 1 µM (VIPR2 [1]; Batch 3) | inhibition at 5 µM (VIPR2 [1]; Batch 3) | inhibition at 0.5 µM (VIPR2 [2]; Batch 3) | inhibition at 1 µM (VIPR2 [2]; Batch 3) | inhibition at 5 µM (VIPR2 [2]; Batch 3) | % Activity (VIPR2 [3]) | inhibition at 0.5 µM (VIPR2 [1]; Batch 1) | inhibition at 1 µM (VIPR2 [1]; Batch 1) | inhibition at 5 µM (VIPR2 [1]; Batch 1) | inhibition at 0.5 µM (VIPR2 [2]; Batch 1) | inhibition at 1 µM (VIPR2 [2]; Batch 1) | inhibition at 5 µM (VIPR2 [2]; Batch 1) | inhibition at 0.5 µM (VIPR2 [1]; Batch 2) | inhibition at 1 µM (VIPR2 [1]; Batch 2) | inhibition at 5 µM (VIPR2 [1]; Batch 2) | inhibition at 0.5 µM (VIPR2 [2]; Batch 2) | inhibition at 1 µM (VIPR2 [2]; Batch 2) | inhibition at 5 µM (VIPR2 [2]; Batch 2)
O=C(NC1CCCC1)[C@H](Cc1ccccc1)C[C@H](O)CNS(=O)(=O)c1ccc([N+](=O)[O-])cc1 [Compound B1A] |  |  |  |  |  |  | 6.95% |  |  |  |  |  |  | -2.1% | -4.9% | 4.7% | 17.4% | 17.1% | 9.2%
CCCCNC(=O)[C@@H](Cc1ccccc1)C[C@H](O)CNS(=O)(=O)c1ccc([N+](=O)[O-])cc1 [Compound B7B] |  |  |  |  |  |  | 13.45% |  |  |  |  |  |  | -1.5% | 0.6% | 6.2% | 26.8% | 20.4% | 20.7%
O=C(NC1Cc2ccccc2C1)[C@H](Cc1ccccc1)C[C@H](O)CNS(=O)(=O)c1ccc([N+](=O)[O-])cc1 [Compound B2A] |  |  |  |  |  |  | 12.9% |  |  |  |  |  |  | 5.7% | 7.5% | 16% | -2.7% | 8.1% | 9.8%
O=C(NC[C@@H](O)C[C@@H](Cc1ccccc1)C(=O)N[C@H]1c2ccccc2C[C@H]1O)c1c(Cl)cc(Cl)cc1Cl [D] |  |  |  |  |  |  | 21.9% | 17.6% | 14.8% | 12.3% | 23.9% | 25.3% | 31.5% |  |  |  |  |  | 
O=C(NC[C@@H](O)C[C@@H](Cc1ccccc1)C(=O)N[C@H]1c2ccccc2C[C@H]1O)c1ccc2ccccc2c1 [B] |  |  |  |  |  |  | 16.6% | 13.2% | 16.3% | 23.5% | -2.9% | 11.1% | 9.7% |  |  |  |  |  | 
O=C(N[C@H]1c2ccccc2C[C@H]1O)[C@H](Cc1ccccc1)C[C@H](O)CNS(=O)(=O)c1ccccc1C(F)(F)F [R] |  |  |  |  |  |  | 22.85% | 23% | 18.8% | 24.7% | 10.7% | 24.8% | 21% |  |  |  |  |  | 
O=C(NC[C@@H](O)C[C@@H](Cc1ccccc1)C(=O)N[C@H]1c2ccccc2C[C@H]1O)c1cccc(CCl)c1 [O] |  |  |  |  |  |  | 2.4% | 0.5% | 2.3% | 15.1% | -8.1% | 5.7% | -10.3% |  |  |  |  |  | 
CC(C)(C)c1ccc(S(=O)(=O)NC[C@@H](O)C[C@@H](Cc2ccccc2)C(=O)N[C@H]2c3ccccc3C[C@H]2O)cc1 [A, reference compound] |  |  |  |  |  |  |  | 9.7% | 13% | 72.1% | 0% | 18.1% | 56.7% |  |  |  |  |  | 

The next lines start with the values.

inhibition at 0.5 µM (VIPR2 [1]; Batch 3) | inhibition at 1 µM (VIPR2 [1]; Batch 3) | inhibition at 5 µM (VIPR2 [1]; Batch 3) | inhibition at 0.5 µM (VIPR2 [2]; Batch 3) | inhibition at 1 µM (VIPR2 [2]; Batch 3) | inhibition at 5 µM (VIPR2 [2]; Batch 3) | % Activity (VIPR2 [3]) | inhibition at 0.5 µM (VIPR2 [1]; Batch 1) | inhibition at 1 µM (VIPR2 [1]; Batch 1) | inhibition at 5 µM (VIPR2 [1]; Batch 1) | inhibition at 0.5 µM (VIPR2 [2]; Batch 1) | inhibition at 1 µM (VIPR2 [2]; Batch 1) | inhibition at 5 µM (VIPR2 [2]; Batch 1) | inhibition at 0.5 µM (VIPR2 [1]; Batch 2) | inhibition at 1 µM (VIPR2 [1]; Batch 2) | inhibition at 5 µM (VIPR2 [1]; Batch 2) | inhibition at 0.5 µM (VIPR2 [2]; Batch 2) | inhibition at 1 µM (VIPR2 [2]; Batch 2) | inhibition at 5 µM (VIPR2 [2]; Batch 2) | SMILES
9.4% | -1.4% | -3.4% | 4.2% | -1.6% | 8.7% | 2.65% |  |  |  |  |  |  |  |  |  |  |  |  | CN(C)c1ccc(S(=O)(=O)NC[C@@H](O)C[C@@H](Cc2ccccc2)C(=O)N[C@H]2c3ccccc3C[C@H]2O)cc1 [Compound X083]
 |  |  |  |  |  | 7.75% | 15.5% | 19% | 18.6% | 9.9% | 15.2% | -3.1% |  |  |  |  |  |  | O=C(CCN1C(=O)C=CC1=O)NC[C@@H](O)C[C@@H](Cc1ccccc1)C(=O)N[C@H]1c2ccccc2C[C@H]1O [Compound A21]
8.4% | 18.6% | 33.3% | -5.6% | -5.5% | 6.7% | 20% |  |  |  |  |  |  |  |  |  |  |  |  | Nc1ccc(S(=O)(=O)NC[C@@H](O)C[C@@H](Cc2ccccc2)C(=O)N[C@H]2c3ccccc3C[C@H]2O)cc1 [Compound X081]
-0.9% | 2% | -7.3% | -0.8% | 1.1% | 4.3% | −1.5% |  |  |  |  |  |  |  |  |  |  |  |  | CNc1ccc(S(=O)(=O)NC[C@@H](O)C[C@@H](Cc2ccccc2)C(=O)N[C@H]2c3ccccc3C[C@H]2O)cc1 [Compound X082]
-0.4% | 5.9% | 20.6% | -0.4% | 2.9% | -5.5% | 7.55% |  |  |  |  |  |  |  |  |  |  |  |  | CCCCNC(=O)c1ccc(S(=O)(=O)NC[C@@H](O)C[C@@H](Cc2ccccc2)C(=O)N[C@H]2c3ccccc3C[C@H]2O)cc1 [Compound X100]
 |  |  |  |  |  | 19.8% | 18.4% | 18.3% | 19.6% | 9.5% | 17.4% | 20% |  |  |  |  |  |  | O=C(NC[C@@H](O)C[C@@H](Cc1ccccc1)C(=O)N[C@H]1c2ccccc2C[C@H]1O)C(Cl)Cl [Compound A6]
1% | 6.9% | 16.7% | 5.3% | 5.1% | -7.5% | 4.6% |  |  |  |  |  |  |  |  |  |  |  |  | CC(C)C(=O)Nc1ccc(S(=O)(=O)NC[C@@H](O)C[C@@H](Cc2ccccc2)C(=O)N[C@H]2c3ccccc3C[C@H]2O)cc1 [Compound X092]
74.3% | 86.1% | 97.8% | 2.6% | -2.6% | 29.3% |  | 42.6% | 71.3% | 99.1% | 37.7% | 74.6% | 88.7% | 38.7% | 70.9% | 100% | 15.6% | 38.6% | 92% | O=C(N[C@H]1c2ccccc2C[C@H]1O)[C@H](Cc1ccccc1)C[C@H](O)CNS(=O)(=O)c1ccc([N+](=O)[O-])cc1 [Compound A27, reference compound]
